# Reference: patent publication US20240108654A1, “COMBINATION OF A T CELL THERAPY AND A DGK INHIBITOR” (Juno Therapeutics, Inc., priority 2021, published 2024)
# Assays:
# [1] = tested on: anti-CD19 CAR-expressing T cells; experiment: Cytokine production (MSD) of CAR-T cells concurrently treated during chronic stimulation, 2D co-culture; assay type: cell-based, human; details: concurrent treatment during chronic stimulation; 48 hours 2D co-culture with K562.CD19, Granta-519, Raji
# Protocol: (§1) To simulate conditions of chronic stimulation, approximately 20,000 anti-CD19 CAR-expressing T cells of a combined CAR-T cell composition produced as described in Example 1 from two healthy adult donors were incubated with 30 μg/mL of plate-bound CAR-specific anti-idiotypic antibody (see, e.g., WO2018/023100) at 37° C. for a period of seven days. During this seven-day period, engineered CAR T cells were concurrently treated with Compound 17 (0.1-1000 nM) or a vehicle control added at day 0.
# Stimulated CAR T cells were then re-challenged with CD19-expressing tumor cells or tumor spheroids in the absence of Compound 17, and cytolytic activity and cytokine production were assessed.
# (§2) Supernatant was collected after 48 hours from the above co-cultures of chronically stimulated CAR-expressing T cells and CD19-expressing tumor cells. Cytokine production was measured from the supernatant by meso scale discovery (MSD) analysis of the collected cell supernatants. […] Duplicate values for cell compositions manufactured from the two different healthy donors are shown.
# Human venous whole blood = experiment: Human whole blood IFN-γ assay; assay type: cell-based; details: anti-CD3 and anti-CD28 1 μg/mL each, 24 hours; 3 μM reference compound as 100% activation; read-out: INFg Whole Blood Normalized Agonist EC50
# Protocol: Human venous whole blood (22.5 μL per well), obtained from healthy donors, was pre-treated with compounds for one hour at 37° C. in a humidified 95% air/5% CO2 incubator. The blood was stimulated with 2.5 μL anti-human CD3 and anti-CD28 mAb at a final concentration of 1 μg/mL each for 24 hours at 37° C. IFN-γ in the supernatants was measured using ALphLISA kit (Cat #AL217).
# [2] = tested on: anti-CD19 CAR-expressing T cells; experiment: Rescue treatment of chronically stimulated CAR-T cells: cytolytic activity, 2D co-culture with CD19-expressing lymphoma cells; assay type: cell-based, human; details: rescue treatment during 2D co-culture, higher concentrations
# Protocol: (§3) Anti-CD19 CAR-expressing T cells, produced as described in Example 1, were chronically stimulated with plate-bound CAR-specific anti-idiotypic antibody for seven days as described in Example 2, but in the absence of Compound 17 during chronic stimulation. Instead, chronically stimulated CAR T cells were treated with Compound 17 during re-challenge with CD19-expressing tumor cells, after which cytolytic activity and cytokine production were assessed.
# The chronically stimulated CAR-T cells were incubated with various CD19-expressing lymphoma cells at a 2.5:1 effector:target ratio in the presence of DGKi (0-1000 nM). The tumor cells were labeled with NucLight Red (NLR) and tumor cell number was monitored by Incucyte®.
# [3] = tested on: anti-CD19 CAR-expressing T cells; experiment: T cell proliferation during acute stimulation with plate-bound anti-CAR anti-idiotypic antibody (Incucyte confluence); assay type: cell-based, human; details: 30 μg/mL plate-bound anti-idiotypic antibody, seven days, compound present during stimulation
# Protocol: T cell proliferation during stimulation with 30 μg/mL of plate-bound anti-CAR anti-idiotypic antibody in the presence of Compound 17 was monitored for seven days using an Incucyte imaging system. Cell proliferation was monitored by analyzing the occupied area (% confluence) of cell images over time; as cells proliferate, the confluence increases.
# Triplicate values for cell compositions manufactured from the two different healthy donors are shown.
# [4] = tested on: anti-CD19 CAR-expressing T cells; experiment: CAR-T cell phenotype after stimulation with CAR-specific anti-idiotypic antibody (flow cytometry); assay type: cell-based, human; details: 48-hour stimulation with 3 or 30 μg/mL anti-idiotypic antibody; compound 0.1-1000 nM; two donors
# Source text: T cell compositions containing T cells expressing an exemplary anti-CD19 CAR were generated from leukapheresis samples from two healthy human adult donors by a process that included immunoaffinity-based selection of T cells by separately selecting CD4+ and CD8+ cells from the samples, resulting in two compositions enriched for CD4+ and CD8+ cells, respectively, per donor. Cells of the enriched CD4+ and CD8+ compositions were separately activated with anti-CD3/anti-CD28 beads and subjected to lentiviral transduction with a vector encoding an anti-CD19 CAR. […]
# Prior to use, the cryopreserved CD4+ and CD8+ CAR-engineered cell compositions were thawed and combined at approximately a 1:1 CD4:CD8 ratio for each donor to prepare a combined CD4+ CAR+ and CD8+ CAR+ T cell composition. The effects of treatment with Compound 17 at various concentrations (0.1 nM, 1 nM, 10 nM, 100 nM, or 1000 nM) added at day 0 during stimulation of the combined CAR-T cell composition with a plate-bound CAR-specific anti-idiotypic antibody (see, e.g., WO2018/023100) or during co-culture with CD19-expressing cells was then assessed. […]
# [5] = tested on: anti-CD19 CAR-expressing T cells; experiment: Rescue treatment of chronically stimulated CAR-T cells: cytokine production (MSD), 2D co-culture; assay type: cell-based, human; details: 48 hours 2D co-culture with K562.CD19, Granta-519, Raji
# Protocol: as §3, §2
# [6] = tested on: anti-CD19 CAR-expressing T cells; experiment: Activation phenotype of CAR-T cells chronically stimulated with concurrent compound treatment; assay type: cell-based, human; details: seven-day chronic stimulation, concurrent compound 0.1-1000 nM
# Protocol: as §1
# [7] = tested on: anti-CD19 CAR-expressing T cells; experiment: Rescue treatment of chronically stimulated CAR-T cells: cytolytic activity, 3D tumor spheroids; assay type: cell-based, human; details: rescue treatment during co-culture; A549.CD19 and Granta-519 spheroids, day 9
# Protocol: as §3
# Cytolytic activity also was assessed in CD19-expressing tumor spheroid cultures incubated with chronically stimulated CAR-T cells in the presence of DGKi. A549 CD19+ tumor spheroids or Granta-519 tumor spheroids were incubated with the anti-CD19 CAR-expressing T cells at an effector to target ratio of 1:2 for up to 14 days in the presence of DGKi (0-1000 nM). The tumor spheroids were engineered to express a red fluorescent dye to permit monitoring of tumor cell lysis by microscopy during the assay. Cytolytic activity was assessed by monitoring fluorescence over time, and the tumor volume (normalized to time zero) was measured as the number of red calibrated units (RCU)×μm^2 area. […] Duplicate values for cell compositions manufactured from the two different healthy donors are shown.
compound,measurement,setting,value
"CC[C@H]1CN([C@@H](CC)c2ccc(C(F)(F)F)cc2)[C@H](CC)CN1c1nc(=O)n(C)c2ccc(C#N)nc12 [Compound 17, 4-((2S,5R)-2,5-diethyl-4-((S)-1-(4-(trifluoromethyl)phenyl)propyl)piperazin-1-yl)-1-methyl-2-oxo-1,2-dihydropyrido[3,2-d]pyrimidine-6-carbonitrile]","production of IFNγ, IL-2 and TNFα in supernatant",[1],dose-dependent increase in production of all three cytokines
same,EC50,Human venous whole blood,20 nM
same,CAR-T cell cytolytic activity (tumor cell number),[2]; Granta-519 cells,improved the cytolytic activity
same,CAR-T cell cytolytic activity (tumor cell number),[2]; K562.CD19 cells,improved the cytolytic activity
same,T cell proliferation (% confluence),[3],did not affect T cell proliferation
same,"expression of CD27 and CD62L (% positive cells and MFI, presence vs. absence of compound)",[4],decreased
same,"expression of CD69 and PD-1 (% positive cells and MFI, presence vs. absence of compound)",[4],increased
same,"production of IFNγ, IL-2 and TNFα in supernatant",[5],dose-dependent increase in production of all three cytokines
same,"populations of highly activated CAR-T cells (CD69, PD-1 high)",[6],increased populations of highly activated CAR-T cells
same,CAR-T cell cytolytic activity (normalized tumor volume),[7],improved the cytolytic activity
